In article PMC12667295, “A surrogate barrier model for high-throughput blood-brain barrier permeability prediction: integrating LLC-PK1-MOCK/MDR1 Cells and lysosomal trapping correction” (Drug Delivery, 2025):
Values joined by “and” are separate entries in the source; they are usually repeats but may differ in a detail not shown here. Equal entries are not always repeated. Where two headings read alike, the source gives them in different places.

Experiments:
[1] = in vitro; details: rat, plasma
Description: (§1) Stocks (10 mM) of test compounds were diluted to 5 μM with plasma or tissue homogenate and dialyzed at 37 °C for 6 hours in a shaking incubator. After incubation aliquots of both plasma or tissue homogenate and buffer from the device were taken and added to equal volumes of blank buffer and plasma or tissue homogenate respectively. Samples were then diluted in acetonitrile containing an internal standard prior to centrifugation and analysis of the supernatants by LC-MS/MS. The fu, plasma was calculated using Equation 1:(1) fu,plasma=Concbuffer chamber/Concsample chamber
(§2) Unbound fractions of test drugs in plasma (fu,plasma) and brain tissue (fu,brain). For compounds with existing rat plasma or brain protein-binding data from literature or internal studies, values were directly adopted.

[2] = in vitro
Description: as §1
Rat fraction unbound in brain (fu, brain) was determined as the ratio of concentration in buffer to that in brain.
as §2

[3] = in vivo; details: rat
Description: In vivo unbound brain distribution data (Kp,uu,Brain) for 16 drugs and total brain distribution data (Kp,Brain) for 16 drugs was acquired from literature. […] For each tested compound, fifteen rats were randomly divided into five groups of three rats each. […] The time of execution of the rats by CO2 inhalation after administration was optimized according to the in vivo elimination rate to achieve five concentrations of different time points. After the rats were euthanized, cardiac puncture was performed immediately to remove as much whole blood as possible (~7 ml) from the systemic circulation (Quantitatively aliquot 0.2 ml of whole blood for the determination of drug concentration in plasma). Afterwards, the brain tissue was collected immediately and rinsed repeatedly with ice-cold saline 3 times. Then, the surface saline was blotted dry with clean filter paper to remove as much residual drug in the blood vessels as possible. Plasma samples were prepared by centrifugation of the blood samples at 2,500 g for 10 minutes at 4 °C. All brain samples were homogenized by adding 4-fold volume water. All samples were stored at -40 °C before LC-MS/MS analysis. […] The brain tissue partition coefficient (Kp, brain) and brain-to-plasma unbound drug partition ratio (Kp,uu, brain) are calculated according to the following formulas, respectively: Kp,brain=AUC(0−∞,brain)/AUC(0−∞,plasma)Kp,uu,brain=Kp,brain×(fu,tissue/fu,plasma)
Free brain-to-plasma distribution coefficients (Kp,uu,brain) of 41 drugs. Brain distribution coefficients (Kp,uu,brain) were calculated for 41 drugs. […] Plasma and brain concentration-time profiles were generated, and AUC(0-t) values for both matrices were calculated using WinNolin 8.1. Kp,brain was derived as the ratio of brain-to-plasma AUC(0-t).
Kp,uu,brain values were computed by normalizing Kp,brain to unbound fractions (fu,plasma and fu,brain).

[4] = in vitro; details: pig, pH 7.4
Description: (§3) Cells were passaged at 80−90% confluence (every 2−3 days) using trypsin-EDTA solution. […] The culture medium was replaced every other day, including 200 µL culture medium in the apical and 850 µL cell culture medium in the basolateral side. LLC-PK1 MOCK cells were used at passages of 3−30. LLC-PK1-MDR1 cells were cultured and passaged in the same manner as LLC-PK1 cells except at the density of 1 × 10^4 cells per well. LLC-PK1-MDR1 cells were used at passages of 3−25. For LLC-PK1 MOCK cells and LLC-PK1-MDR1 cells, the experiments were performed on the 4th and 7th day after seeding.
(§4) Samples were collected from the donor well at the start of the incubation (50 µL) as C0, and from the donor and receiver wells at the end of the incubation (50 µL). All samples were stored at - 40 °C for LC-MS/MS analysis.
(§5) Bidirectional transport experiments. […] The transwell experiments were conducted following above-mentioned procedure. […] When the recovery rate of the tested drug is below 80%, the possibility of intracellular accumulation should be considered. The polycarbonate (PC) membrane where cells are grown should be carefully peeled off from the cell culture medium and placed in 100 µL of HBSS buffer solution. […] The process was carried out on ice to prevent heat-induced degradation, applying a power in the range of 300 W for a total duration of 20 minutes. Thereafter, a quantitative analysis of the intracellular drug was conducted, and the drug recovery rate was recalculated based on this analysis.
(§6) The apparent permeability coefficient (Papp, cm/s) was calculated for each transport direction, A-B and B-A, using the following equation: Papp=dQ/dt×1/A×C0 where dQ/dt is the permeation rate (µmol/s), A is the surface area of the insert (0.33 cm^2, Corning), and C0 is the initial donor concentration (µM).
(§7) The efflux ratio (ER) is calculated as the ratio of Papp (B-A)/Papp (A-B). Recovery=TRcumrf+Cdf×VD/Cdi×VD×100% Where TRcumrf is the cumulative transported mass in the receiver chamber at the end of the incubation (nmol), Cdf is the concentration of the drug in the donor chamber at the end of the incubation (μM), VD is the volume of the donor chamber (mL), and Cdi is the initial concentration of the drug in the donor chamber (μM).
(§8) The method of the bidirectional transport experiment was the same as before.

[5] = tested on: P-gp (human MDR1); test: in vitro; details: pig, LLC-PK1, pH 7.4
Description: (§9) The overexpression and functional activity of P-glycoprotein (P-gp) in the LLC-PK1-MDR1 cells were rigorously validated through multiple methods.
as §3
(§10) Monitoring permeability of positive control drugs. […] Samples were collected from the donor well at the start of the incubation (50 µL) as C0, and from the donor and receiver wells at the end of the incubation (50 µL). All samples were stored at - 40 °C for LC-MS/MS analysis.
as §5, §6, §7, §8

[6] = cited from earlier work
[7] = Bidirectional transport across LLC-PK1 MOCK monolayer (Transwell); details: pig; for recovery at 2 h, 2 µM: pH 7.4, Recovery after correction of intracellular accumulation data, cell lysate included, mean±SD, n=3;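 as to all read-outs here: compound quantified by LC-MS/MS in donor and receiver wells, efflux ratio as B-A over A-B Papp, recovery relative to initial donor amount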
Description: as §3, §4, §5, §6, §7, §8

[8] = tested on: LLC-PK1 MOCK cells; test: as above; details: LLC-PK1 MOCK, 2 µM, 2 h, mean ± s, n = 3; BLQ = below 2 nM
Description: as §3, §4, §5, §6, §7, §8

[9] = tested on: P-gp (human MDR1); test: Bidirectional transport across LLC-PK1-MDR1 monolayer stably expressing human MDR1 (P-gp) (Transwell); details: pig;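 also: 2 h incubation at 37 °C, receiver HBSS with 10 mM Hepes plus 1% BSA, LC-MS/MS of donor and receiver, recovery as receiver plus donor amount over initial donor amount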
Description: as §9, §3, §10, §5, §6, §7, §8

[10] = LLC-PK1 MOCK/MDR1 monolayer model, results stated for both cell lines jointly; details: pig
Description: Monitoring of TEER value and LY permeability. After the LLC-PK1 MOCK/MDR1 cells attach to the Transwell insert, TEER (Transepithelial Electrical Resistance) values were continuously recorded using a cell resistance meter (Beijing JINGONGHONGTAI Technology Co., Ltd). These TEER values represent the mean from six individual inserts (n = 6) measured per group. The TEER measurement and transport experiment were conducted at 37 °C, using a heating plate to maintain the required temperature. The transmembrane resistance was calculated using the formula TEER = (Rtotal-Rblank) × Aarea, where Rblank represents the TEER of the blank chamber.
The permeability of the Lucifer Yellow CH Dipotassium Salt (LY, 100 μM) across the monolayers was measured in apical-to-basolateral direction to monitor the integrity of the cell monolayer.
Bidirectional transport experiments. […] The transwell experiments were conducted following above-mentioned procedure.

[11] = set-up: method as in not given; details: stated without method; ref not given; cited from earlier work
[12] = cited from earlier work; remark: listed apart in the source
[13] = tested on: LLC-PK1-MDR1 cells; test: Bidirectional transport across LLC-PK1-MDR1 monolayer stably expressing human MDR1 (P-gp) (Transwell);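 also: 2 h incubation at 37 °C, receiver HBSS with 10 mM Hepes plus 1% BSA, LC-MS/MS of donor and receiver, recovery as receiver plus donor amount over initial donor amount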
Description: as §9, §3, §10, §5, §6, §7, §8

[14] = tested on: LLC-PK1-MDR1 cells
Description: as §9, §3, §10, §5, §6, §7, §8

[15] = LLC-PK1 MOCK cell monolayer (Transwell)
[16] = LLC-PK1, pH 7.4, ER, LLC-PK1-MDR1, Papp (B-A)/Papp (A-B)
[17] = LLC-PK1, pH 7.4, Papp A-B, LLC-PK1-MDR1, 2 µM, 2 h, mean ± s, n = 3
[18] = LLC-PK1, pH 7.4, ER, LLC-PK1 MOCK, Papp (B-A)/Papp (A-B)
[19] = LLC-PK1 MOCK and LLC-PK1-MDR1 cell monolayers (Transwell), pH 7.4, Recovery after cell lysate extraction, intracellular drug included
[20] = LLC-PK1 MOCK and LLC-PK1-MDR1 cell monolayers (Transwell), pH 7.4, Recovery, bidirectional transport, uncorrected
[21] = LLC-PK1 MOCK and LLC-PK1-MDR1 cell monolayers (Transwell), pH 7.4, with bafilomycin A1 1 µM (inhibitor of lysosomal function), Recovery, with 1 µM Bafilomycin A1, bidirectional transport
[22] = LLC-PK1, pH 7.4, Papp A-B, LLC-PK1 MOCK, 2 µM, 2 h, mean ± s, n = 3, BLQ = below 2 nM
[23] = LLC-PK1 MOCK cell monolayer (Transwell), A-B, LLC-PK1 MOCK
[24] = LLC-PK1 MOCK cell monolayer (Transwell), B-A, LLC-PK1 MOCK

SMILES	fraction unbound at 6 h, 5 µM [1]	fraction unbound at 6 h, 5 µM ([2]; rat, brain homogenate)	recovery at 2 h, 2 µM [4, 15] [%]	recovery at 2 h, 2 µM [5] [%]	Papp B→A at 2 h, 2 µM ([7]; LLC-PK1, pH 7.4) [×10⁻⁶ cm/s]	Papp A-B [8]	Papp B→A at 2 h, 2 µM ([9]; LLC-PK1, pH 7.4) [×10⁻⁶ cm/s]	efflux ratio at 2 h, 2 µM [9, 16]	Papp A→B at 2 h, 2 µM [9, 17] [×10⁻⁶ cm/s]	pKa [11]	efflux ratio at 2 h, 2 µM [7, 18]	Papp A→B at 2 h, 2 µM ([9]; LLC-PK1, pH 7.4) [×10⁻⁶ cm/s]	recovery at 2 µM [10, 19] [%]	recovery at 2 µM [10, 20] [%]	recovery at 2 µM [10, 21] [%]	Papp A→B at 2 h, 2 µM [7, 22] [×10⁻⁶ cm/s]	recovery at 2 h, 2 µM [7, 24] [%]	other results
CC(C)(C)NCC(O)c1ccc(O)c(CO)c1 (stereo not shown) [Salbutamol]	0.78	0.315	98.1 ± 2.21	98.2 ± 0.36	0.21 ± 0.02	BLQ	2.66 ± 0.21	1.42	1.88 ± 0.35									Kp uu [3]: 0.01; Kp, Brain ([6]; footnote a, ref Internal data): 0.021^a
COc1ccc2cc1Oc1ccc(cc1)C[C@H]1c3cc(c(OC)cc3CCN1C)Oc1c(OC)c(OC)cc3c1[C@H](C2)N(C)CC3 [Tetrandrine]					4.19 ± 0.77		13 ± 2.24	8.4		> 7	1.33	1.55 ± 0.29						recovery at 2 µM ([10]; pH 7.4, Recovery after cell lysate extraction, intracellular drug included): > 80%; recovery at 2 µM ([10]; pH 7.4, Recovery, bidirectional transport, uncorrected): < 80%; recovery at 2 µM ([10]; pH 7.4, Recovery, with 1 µM Bafilomycin A1, bidirectional transport): 80 to 120%; Kp, Brain ([6]; ref Wang [2024]): 24.3; Kp,uu,Brian ([6]; ref Wang [2024]): 0.80; Papp A→B at 2 h, 2 µM ([7]; LLC-PK1, pH 7.4): 3.15 ± 0.23 ×10⁻⁶ cm/s; recovery at 2 h, 2 µM ([7]; A-B, LLC-PK1 MOCK): 54.1 ± 7.24%; recovery at 2 h, 2 µM ([7]; B-A, LLC-PK1 MOCK): 93.5 ± 6.72%
CN(C)CCC=C1c2ccccc2CCc2ccccc21 [Amitriptyline]					13.8 ± 1.58		12.7 ± 1.19	1.85	6.84 ± 0.72	> 7	1.38		> 80	< 80	80 to 120	9.98 ± 0.69	90 ± 9.68	Kp, Brain ([6]; ref Fridén [2009]): 20.15; Kp,uu,Brian ([6]; ref Fridén [2009]): 0.73; recovery at 2 h, 2 µM [7, 23]: 80.01 ± 0.69%
COc1cccc2c1C(=O)c1c(O)c3c(c(O)c1C2=O)C[C@@](O)(C(=O)CO)C[C@@H]3O[C@H]1C[C@H](N)[C@H](O)[C@H](C)O1 [Doxorubicin]		< 0.01			0.09 ± 0.01	BLQ	3.47 ± 0.39					0.95 ± 0.16						Kp uu ([3]; SD, iv, 1 mg/kg): < 0.012; Kp ([3]; SD, iv, 1 mg/kg, Kp, Brain): 0.291; Kp ([3]; SD, iv, 1 mg/kg, Kp,uu,Brian): 0.012; Protein binding in plasma ([12]; footnote b, species not stated, ref https://go.drugbank.com): 75^b %
COCCc1ccc(OCC(O)CNC(C)C)cc1 (stereo not shown) [Metoprolol]			114 ± 8.95	116 ± 1.08	24 ± 1.39											30.1 ± 3.88		Papp A→B at 2 h, 2 µM ([7]; LLC-PK1, pH 7.4, Papp (A-B), LLC-PK1 MOCK, positive control drugs run with each batch (n = 15), 2 µM): > 20 ×10⁻⁶ cm/s; Papp A-B ([13]; LLC-PK1-MDR1, positive control drugs run with each batch (n = 15), 2 µM): exceeded 20 × 10^−⁶ cm/s
Fc1ccc([C@@H]2CCNC[C@H]2COc2ccc3c(c2)OCO3)cc1 [Paroxetine]	0.021	< 0.01	54.1 ± 1.86		14.8 ± 0.57		10.9 ± 0.35	2.11	5.15 ± 0.55	> 7	1.93		> 80	< 80	80 to 120	7.65 ± 0.2	92.7 ± 4.03	Kp ([3]; Kp,uu,Brian): 1.57; Kp, Brain ([6]; ref O’Brien et al. [2012]): 3.307; recovery at 2 h, 2 µM [7, 23]: 97.6 ± 1.99%
CN(Cc1cnc2nc(N)nc(N)c2n1)c1ccc(C(=O)N[C@@H](CCC(=O)O)C(=O)O)cc1 [Methotrexate]			85.8 ± 4.58	83.3 ± 5.67		BLQ	0.45 ± 0.05	0.81	0.55 ± 0.1									Kp, Brain ([6]; ref Fridén [2009]): 0.004; Kp,uu,Brian ([6]; ref Fridén [2009]): 0.006; Papp B-A [8]: BLQ
C[C@H]1O[C@@H](O[C@H]2[C@@H](O)C[C@H](O[C@H]3[C@@H](O)C[C@H](O[C@H]4CC[C@@]5(C)[C@H](CC[C@@H]6[C@@H]5C[C@@H](O)[C@]5(C)[C@@H](C7=CC(=O)OC7)CC[C@]65O)C4)O[C@@H]3C)O[C@@H]2C)C[C@H](O)[C@@H]1O [Digoxin]			95 ± 5.24		1.75 ± 0.07		7.79 ± 0.91					1.15 ± 0.28				1.91 ± 0.13		recovery [14]: 109 ± 16%; Papp at 2 h, 2 µM ([7]; LLC-PK1, pH 7.4): 2.17 ×10⁻⁶ cm/s; Papp at 2 h, 2 µM ([7]; LLC-PK1, pH 7.4, with tariquidar 5 µM (P-gp inhibitor)): 2.1 ×10⁻⁶ cm/s; increase in apical-to-basolateral (A→B) permeability ([13]; LLC-PK1-MDR1, with 5 μM tariquidar vs without): 3.97 fold
CCN(CC)CCNC(=O)c1c(C)[nH]c(/C=C2\C(=O)Nc3ccc(F)cc32)c1C [Sunitinib]	0.017	< 0.01			6.21 ± 0.2		21.8 ± 1.08		2.23 ± 0.21	> 7			> 80	< 80	80 to 120	9.31 ± 0.74	89.2 ± 8.92	Kp ([3]; SD, iv, 1 mg/kg, Kp, Brain): 0.965; Kp ([3]; SD, iv, 1 mg/kg, Kp,uu,Brian): 0.563; recovery [14]: 116% and 97%
Cc1ncc2n1-c1ccc(Cl)cc1C(c1ccccc1F)=NC2 [Midazolam]				100 ± 3	31.6 ± 5.1		27 ± 2.23					29.5 ± 1						fraction unbound at 6 h, 5 µM [2]: 0.022; Kp uu ([3]; in vivo): 1.42; recovery at 2 h, 2 µM [4]: 99.6 ± 1.73%; Protein binding in plasma ([12]; footnote a, ref Internal data): 97.0^a %; Kp, Brain ([6]; footnote a, ref Internal data): 2.44^a; Papp A→B at 2 h, 2 µM ([7]; LLC-PK1, pH 7.4): 24.7 ± 0.41 ×10⁻⁶ cm/s; efflux ratio at 2 h, 2 µM ([7]; LLC-PK1, pH 7.4): 1.32; efflux ratio at 2 h, 2 µM ([9]; LLC-PK1, pH 7.4): 0.91
